# Measured values: patent publication US7781423B2, “Compounds to promote regeneration of bone marrow” (priority 2007, dated 2010)
# Tested on: human bone marrow-derived mesenchymal stem cells
# Assay: Survival of mesenchymal stem cells in the absence of serum (viable cell number)
# Format: cell-based
# Settings: serum-free medium
# Protocol: Bone marrow aspirates were taken from normal adult donors after an informed consent was signed. Bone marrow mesenchymal stem cells were prepared by a widely used technique as described earlier by others. Pittenger, M. F., Mackay, A. M., Beck, S. C., Jaiswal, R. K., Douglas, R., Mosca, J. D., Moorman, M. A., Simonetti, D. W., Craig, S. and Marshak, D. R., “Multilineage potential of adult human mesenchymal stem cells,” Science, 284, 143-147 (1999). […] When cells grew to about 80% confluence, they were suspended and harvested by incubating with a ready-made solution containing 0.25% trypsin and 1 mM EDTA (Sigma-Aldrich, St. Louis, Mo.) for 5 minutes at 37° C.; this cell suspension is designated as passage 1. […]
# The total numbers of nucleated and viable cells were determined with a hemocytometer, using Turck's solution and trypan blue stain, respectively. […]
# In the experiments reported in Table 7 and Table 8, human bone marrow-derived mesenchymal stem cells were split at 1:3 and then incubated for 24 hours in 10% fetal calf serum-containing medium to about 30-35% confluence. […] The data are expressed as mean values±std. dev. of 3 determinations.
structure (smiles),measurement,setting,value
"Cc1c(OCC(O)C[N+](C)(C)C)cc2c(=O)c3ccccc3sc2c1C.[Cl-] (centres unmarked) [CCcompound1, [3-(3,4-Dimethyl-9-oxo-9H-thioxanthen-2-yloxy)-2-hydroxypropyl]trimethyl-ammonium chloride]",effect on cell numbers (survival),10 μM,did not reach statistical significance
same,effect on cell numbers (survival),50 μM,no effect
